According to patent publication US20260070929A1, “METHODS AND COMPOSITIONS FOR MODULATING KRAS(G12D)” (Ranok Therapeutics (Hangzhou) Co. LTD., priority 2022, published 2026):

Assays:
[1] = system: AGS gastric carcinoma cells [heterozygous G12D]; experiment: Cancer cell line proliferation (CellTiter-Glo), AGS; format: cell-based; details: Homo sapiens, 72 hr treatment, read-out: AGS CTG (EC50)
Protocol: (§1) The following cancer cell lines were employed: AGS gastric carcinoma [heterozygous G12D](ATCC, CRL-1739); A-427 lung carcinoma [heterozygous G12D](ATCC, HTB-53); ASPC1 pancreatic adenocarcinoma [homozygous G12D](ATCC, CRL-1682) and SW1990 pancreatic adenocarcinoma [homozygous G12D](ATCC CRL-2172). Cell lines were cultured essentially according to ATCC recommendations.
(§2) AGS, A-427, ASPC1, SW1990, and GP2D cells were plated in 96-well tissue culture plates at 4,000 cells/well and incubated at 37° C./5% CO2 for 72 hr in 100 μl of media. 3-fold serial dilutions of each test compound were prepared ranging from 20 μM to 1.02 nM. Each cell line was then treated with test compounds at various concentrations with a final concentration of 0.5% DMSO/well, and then incubated at 37° C./5% CO2 for 72 hr. 100 µl of CellTiter-Glo® Reagent (Promega Corporation, Madison, WI) was added to each well and processed according manufacturer's protocol. Results were analyzed and EC50 values were calculated in GraphPad 7 software.

[2] = system: A-427 lung carcinoma cells [heterozygous G12D]; experiment: Cancer cell line proliferation (CellTiter-Glo), A-427; format: cell-based; details: Homo sapiens, A-427 cells, 72 hr treatment, read-out: A427 CTG (EC50)
Protocol: as §1, §2

KRAS(G12D)/SOS1 = biological target: T1, KRAS(G12D)/SOS1 (Homo sapiens, UniProt P01116, G12D); experiment: KRAS(G12D)/SOS1 homogeneous time-resolved fluorescence (HTRF) assay; format: binding; details: absence of GTP; 4° C., 3 hr
T1 construct: purchased Cisbio 63ADK000CB17PEH
T1 sequence (P01116 1-188 isoform P01116-2 G12D): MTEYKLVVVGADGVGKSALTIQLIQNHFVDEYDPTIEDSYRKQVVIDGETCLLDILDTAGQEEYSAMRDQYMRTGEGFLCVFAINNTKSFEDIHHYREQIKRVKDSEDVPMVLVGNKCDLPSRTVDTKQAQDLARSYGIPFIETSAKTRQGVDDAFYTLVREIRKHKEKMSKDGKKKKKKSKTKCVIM
Protocol: Binding of test compounds to KRAS(G12D) target protein, which in turn blocks KRAS(G12D) interaction with the SOS1 protein, was measured in the absences of GTP by homogeneous time-resolved fluorescence using the KRAS-G12D/SOS1 Binding Assay Kit (Cisbio, 63ADK000CB17PEH), following the manufacturer's instructions, except as noted. 3-fold serial dilutions of each test compound were prepared ranging from 20 µM to 1.02 nM. The test compound was mixed and incubated with reaction components, incubated in a sealed plate at 4° C. for 3 hr and fluorescence was measured using a PerkinElmer Envision plate reader. The KRAS(G12D)-SOS1 IC50 values (the concentration of 50% of the maximal inhibition) were calculated using GraphPad Prism 7 software.

Compound | EC50 [1] [nM] | EC50 [2] [nM] | IC50 (KRAS(G12D)/SOS1) [nM]
C#Cc1c(F)ccc2cc(O)cc(-c3ncc4c(N5CC6CNC(C6)C5)nc(OCC5(CN6CCC(N7CCN(Cc8ccc9c(c8)CN(C(=O)c8cc(C(C)C)c(O)cc8O)C9)CC7)CC6)CC5)nc4c3F)c12 (stereo not drawn) [Compound 207] | 100 to 1000 |  | 
CCc1cc(-c2nnc(C(=O)NCC(F)(F)F)n2-c2ccc(CN3CCN([C@H]4C[C@@H](COc5nc(N6CC7CCC(C6)N7)c6cnc(-c7ccccc7C(F)(F)F)c(F)c6n5)N(C)C4)CC3)cc2)c(O)cc1O [Compound 111] | 100 to 1000 | 100 to 1000 | 
C#Cc1c(F)ccc2cc(O)cc(-c3ncc4c(N5CC6CCC(C5)N6)nc(OC[C@H]5CCCN5Cc5ccc(-n6c(C(=O)NC(C)C(F)(F)F)nnc6-c6cc(C(C)C)c(O)cc6O)cc5)nc4c3F)c12 (stereo partly drawn) [Compound 206] | 100 to 1000 |  | 
C#Cc1c(F)ccc2cc(O)cc(-c3ncc4c(N5CC6CCC(C5)N6)nc(OCC5(CN6CCN(CC#Cc7cn(Cc8ncc(C)c(OC)c8C)c8nc(N)nc(Cl)c78)CC6)CC5)nc4c3F)c12 [Compound 211] | < 100 |  | 
C#Cc1c(F)ccc2cc(O)cc(-c3ncc4c(N5CC6CCC(C5)N6)nc(OCC5(CN6CC(C7CN(Cc8ccc9c(c8)CN(C(=O)c8cc(C(C)C)c(O)cc8O)C9)C7)C6)CC5)nc4c3F)c12 [Compound 213] | < 100 |  | 
C#Cc1c(F)ccc2cc(O)cc(-c3ncc4c(N5CC6CCC(C5)N6)nc(OCC5(CN6CC(CN(C)CCOc7ccc8c(c7)CN(C(=O)c7cc(C(C)C)c(O)cc7O)C8)C6)CC5)nc4c3F)c12 [Compound 218] | 100 to 1000 |  | 
C#Cc1cccc2cc(O)cc(-c3ncc4c(N5CC6CCC(C5)N6)nc(OCC5(CN6CCC(N7CCN(Cc8ccc9c(c8)CN(C(=O)c8cc(C(C)C)c(O)cc8O)C9)CC7)CC6)CC5)nc4c3F)c12 [Compound 214] | < 100 |  | 
CCNC(=O)c1nnc(-c2cc(C(C)C)c(O)cc2O)n1-c1ccc(CN2CCC(C(=O)N(C)[C@H]3CN4CCC[C@@]4(COc4nc(N5CC6CCC(C5)N6)c5cnc(-c6cc(O)cc7ccccc67)c(F)c5n4)C3)CC2)cc1 [Compound 47] | 100 to 1000 |  | < 100
C#Cc1c(F)ccc2cc(O)cc(-c3ncc4c(N5CC6CCC(C5)N6)nc(OCC5(CN6CCC(N7CCC(Oc8ccc9c(n8)CN(C(=O)c8cc(C(C)C)c(O)cc8O)C9)CC7)CC6)CC5)nc4c3F)c12 [Compound 216] | < 100 |  | 
C#Cc1c(F)ccc2cc(O)cc(-c3ncc4c(N5CC6CCC(C5)N6)nc(OCC5(CN6CCC(N7CCN(Cc8ccc9c(c8)CN(C(=O)c8cc(C(C)C)c(OC)cc8OC)C9)CC7)CC6)CC5)nc4c3F)c12 [Compound 196] | < 100 |  | 
C#Cc1c(F)ccc2cc(O)cc(-c3ncc4c(N5CC6CCC(C5)N6CC#N)nc(OCC5(CN6CCC(N7CCN(Cc8ccc9c(c8)CN(C(=O)c8cc(C(C)C)c(O)cc8O)C9)CC7)CC6)CC5)nc4c3F)c12 [Compound 208] | < 100 |  | 
C#Cc1c(F)ccc2cc(O)cc(-c3ncc4c(N5CC6CCC(C5)N6)nc(OCC5(CN6CC(C7CCN(Cc8ccc9c(c8)CN(C(=O)c8cc(C(C)C)c(O)cc8O)C9)CC7)C6)CC5)nc4c3F)c12 [Compound 215] | < 100 |  | 
C#Cc1c(F)ccc2cc(O)cc(-c3nc(OC)c4c(N5CC6CCC(C5)N6)nc(OC5CN(CC6(F)CN(Cc7ccc8c(c7)CN(C(=O)c7cc(C(C)C)c(O)cc7O)C8)C6)C5)nc4c3F)c12 [Compound 210] | 100 to 1000 |  | 
CCNC(=O)c1nnc(-c2cc(C(C)C)c(O)cc2O)n1-c1ccc(CN2CCC(C(=O)N(C)[C@H]3CN4CCC[C@]4(COc4nc(N5CC6CCC(C5)N6)c5cnc(-c6cc(O)cc7ccccc67)c(F)c5n4)C3)CC2)cc1 [Compound 48] | 100 to 1000 |  | 
C#Cc1c(F)ccc2cc(O)cc(-c3ncc4c(N5CC6CCC(C5)N6)nc(OCC5(CN6CCC(N7CCN(Cc8cc9c(cc8F)CN(C(=O)c8cc(C(C)C)c(O)cc8O)C9)CC7)CC6)CC5)nc4c3F)c12 [Compound 209] | < 100 |  | 
C#Cc1cccc2cccc(-c3ncc4c(N5CC6CCC(C5)N6)nc(OCC5(CN6CCN(C(=O)C7CCN(Cc8ccc9c(c8)CN(C(=O)c8cc(C(C)C)c(O)cc8O)C9)CC7)CC6)CC5)nc4c3F)c12 [Compound 46] |  |  | < 100
